Test results from patent US9201014B2, “Development of photostable near-IR cyanine dyes for in vivo imaging” (National University of Singapore, priority 2010, dated 2015).

What was measured:
[1] = Absorbance and fluorescence maximum wavelengths and quantum yields of the CyNA library; format: physicochemical; details: for λabs, absorbance maximum wavelength / λem, fluorescence maximum wavelength: CyNA library; for φ, quantum yield: in DMSO, Cardiogreen as standard
Method: Since the k values of the different CyNA compounds indicated some dependency on the chemical structure of the amine, the CyNA scaffold was derivatized with a broad range of primary amines (FIGS. 4A-4C). The fluorescence properties of the 80-member CyNA library were measured. The absorption maximum wavelengths ranged from 802 nm to 806 nm, emission maximum wavelengths ranged from 817 nm to 823 nm, and the average quantum yield was approximately 0.10 (Table 2).
All the chemicals (building block amines plus others) and solvents were purchased from Sigma Aldrich, Alfa Aesar, Fluka, MERCK or Acros, and used without further purification. ^1H-NMR and ^13C-NMR spectra were recorded on Bruker Avance 300 NMR and 500 NMR spectrometers, and chemical shifts are expressed in parts per million (ppm). High-resolution mass spectrometry (HRMS) data was recorded on a Micromass VG 7035. Photobleaching experiments were performed using a UVP Blak-Ray® B-100AP high intensity UV lamp (100 W, 365 nm) Spectroscopic and quantum yield data were measured on a SpectraMax M2 spectrophotometer (Molecular Devices), and the data analysis was performed using GraphPrism 5.0. Photobleaching measurements were performed using an Eclipse Ti-U Nikon microscope (filter cube: 750/800) attached to Ti:sappire oscillator that operated in continuous wave mode, and the data was processed using the software NIS-Elements 3.10. In vivo images were taken in an IVIS Spectrum imaging system (Caliper Life Sciences).

[2] = Primary screening of photostability of the CyNA library (time-course fluorescence, 8 h); format: physicochemical; design: F/Fo, fluorescent intensity at 8 hours vs 0 hours: unit: %; details: 10 μM in HEPES 100 mM pH 7.4, 2% DMSO
Method: As a primary evaluation of photo stability, the decrease in fluorescence intensity of the 80 CyNA compounds was measured (see Table 2). The average decrease in fluorescence intensity after 8 hours of irradiation by a xenon lamp was approximately 18%. A subset of the most photostable compounds (i.e., F/Fo reported in Table 2 was greater than or equal to 95) was examined under stronger irradiation in various buffers.
10-μM CyNA solutions in 100 mM HEPES buffer (pH 7.4) containing 2% DMSO were placed in a 96-well black plate, and fluorescence intensity measurements were recorded every 10 minutes for a total period of 8 hours (excitation-emission: 790-820 nm). A subset of fourteen compounds selected according to their F8h/Fo quotients, quantum yields and maximum relative fluorescence units (RFU) values was further evaluated in a secondary screening

Row | SMILES | λabs, absorbance maximum wavelength [1] [nm] | λem, fluorescence maximum wavelength [1] [nm] | φ, quantum yield [1] | F/Fo, fluorescent intensity at 8 hours vs 0 hours [2] | max RFU, maximum relative fluorescence units [2]
1 | CCCN1/C(=C/C=C2\CCCC(/C=C/C3=[N+](CCC)c4ccccc4C3(C)C)=C2N(Cc2cccc(Cl)c2)C(C)=O)C(C)(C)c2ccccc21 [CyNA-403] | 805 | 819 | 0.05 | 45 | 261.6
2 | CCCN1/C(=C/C=C2\CCCC(/C=C/C3=[N+](CCC)c4ccccc4C3(C)C)=C2N(CCc2ccccc2Cl)C(C)=O)C(C)(C)c2ccccc21 [CyNA-480] | 803 | 817 | 0.06 | 51 | 154.8
3 | CCCN1/C(=C/C=C2\CCCC(/C=C/C3=[N+](CCC)c4ccccc4C3(C)C)=C2N(CCc2ccc(CC)cc2)C(C)=O)C(C)(C)c2ccccc21 [CyNA-201] | 803 | 820 | 0.08 | 33 | 52.6
4 | CCCN1/C(=C/C=C2\CCCC(/C=C/C3=[N+](CCC)c4ccccc4C3(C)C)=C2N(Cc2cc(OC)c(OC)c(OC)c2)C(C)=O)C(C)(C)c2ccccc21 [CyNA-356] | 804 | 820 | 0.12 | 83 | 892.3
5 | CCCN1/C(=C/C=C2\CCCC(/C=C/C3=[N+](CCC)c4ccccc4C3(C)C)=C2N(CC(c2ccccc2)c2ccccc2)C(C)=O)C(C)(C)c2ccccc21 [CyNA-548] | 804 | 820 | 0.04 |  | 67.6
6 | CCCN1/C(=C/C=C2\CCCC(/C=C/C3=[N+](CCC)c4ccccc4C3(C)C)=C2N(Cc2ccc(OC)c(OC)c2)C(C)=O)C(C)(C)c2ccccc21 [CyNA-319] | 805 | 820 | 0.06 | 67 | 578.6
7 | CCCN1/C(=C/C=C2\CCCC(/C=C/C3=[N+](CCC)c4ccccc4C3(C)C)=C2N(CCCN(C)C)C(C)=O)C(C)(C)c2ccccc21 [CyNA-427] | 805 | 821 | 0.14 | 100 | 1247.4
8 | CCCN1/C(=C/C=C2\CCCC(/C=C/C3=[N+](CCC)c4ccccc4C3(C)C)=C2N(Cc2ccc(Cl)cc2Cl)C(C)=O)C(C)(C)c2ccccc21 [CyNA-531] | 804 | 820 | 0.08 | 100 | 187.5
9 | CCCN1/C(=C/C=C2\CCCC(/C=C/C3=[N+](CCC)c4ccccc4C3(C)C)=C2N(CCc2ccc([N+](=O)[O-])cc2)C(C)=O)C(C)(C)c2ccccc21 [CyNA-359] | 805 | 821 | 0.11 | 85 | 527.6
10 | CCCCCCCCCCCCCCN(C(C)=O)C1=C(/C=C/C2=[N+](CCC)c3ccccc3C2(C)C)CCC/C1=C\C=C1\N(CCC)c2ccccc2C1(C)C [CyNA-28] | 804 | 818 | 0.05 | 87 | 23.9
11 | CCCN1/C(=C/C=C2\CCCC(/C=C/C3=[N+](CCC)c4ccccc4C3(C)C)=C2N(CC2CCCCC2)C(C)=O)C(C)(C)c2ccccc21 [CyNA-382] | 804 | 820 | 0.08 | 85 | 294.6
12 | CCCN1/C(=C/C=C2\CCCC(/C=C/C3=[N+](CCC)c4ccccc4C3(C)C)=C2N(Cc2ccc(Cl)cc2)C(C)=O)C(C)(C)c2ccccc21 [CyNA-221] | 803 | 820 | 0.07 | 86 | 382.6
13 | CCCN1/C(=C/C=C2\CCCC(/C=C/C3=[N+](CCC)c4ccccc4C3(C)C)=C2N(Cc2ccccc2C)C(C)=O)C(C)(C)c2ccccc21 [CyNA-101] | 806 | 822 | 0.08 | 86 | 693.9
14 | CCCN1/C(=C/C=C2\CCCC(/C=C/C3=[N+](CCC)c4ccccc4C3(C)C)=C2N(CCC(c2ccccc2)c2ccccc2)C(C)=O)C(C)(C)c2ccccc21 [CyNA-100] | 804 | 819 | 0.08 | 63 | 333.8
15 | CCCN1/C(=C/C=C2\CCCC(/C=C/C3=[N+](CCC)c4ccccc4C3(C)C)=C2N(CCc2ccc(OC)c(OC)c2)C(C)=O)C(C)(C)c2ccccc21 [CyNA-266] | 804 | 823 | 0.08 | 99 | 541.8
16 | CCCCCCCCCCCCCN(C(C)=O)C1=C(/C=C/C2=[N+](CCC)c3ccccc3C2(C)C)CCC/C1=C\C=C1\N(CCC)c2ccccc2C1(C)C [CyNA-55] | 804 | 819 | 0.13 | 100 | 162.3
17 | CCCN1/C(=C/C=C2\CCCC(/C=C/C3=[N+](CCC)c4ccccc4C3(C)C)=C2N(Cc2ccco2)C(C)=O)C(C)(C)c2ccccc21 [CyNA-446] | 804 | 821 | 0.08 | 85 | 709.2
18 | CCCN1/C(=C/C=C2\CCCC(/C=C/C3=[N+](CCC)c4ccccc4C3(C)C)=C2N(CCc2ccccc2F)C(C)=O)C(C)(C)c2ccccc21 [CyNA-477] | 805 | 819 | 0.09 |  | 169.8
19 | CCCCC(CC)COCCCN(C(C)=O)C1=C(/C=C/C2=[N+](CCC)c3ccccc3C2(C)C)CCC/C1=C\C=C1\N(CCC)c2ccccc2C1(C)C (stereo not drawn) [CyNA-193] | 806 | 822 | 0.12 |  | 58.7
20 | CCCN1/C(=C/C=C2\CCCC(/C=C/C3=[N+](CCC)c4ccccc4C3(C)C)=C2N(Cc2ccccc2Cl)C(C)=O)C(C)(C)c2ccccc21 [CyNA-364] | 804 | 821 | 0.05 | 98 | 264.8
21 | CCCN1/C(=C/C=C2\CCCC(/C=C/C3=[N+](CCC)c4ccccc4C3(C)C)=C2N(Cc2ccc(Cl)c(Cl)c2)C(C)=O)C(C)(C)c2ccccc21 [CyNA-565] | 805 | 821 | 0.09 | 96 | 335.5
